Measurements reported in patent publication US8748417B2, “Amino-pyrrolidine-azetidine diamides as monoacylglycerol lipase inhibitors” (Janssen Pharmaceutica, NV, priority 2010, dated 2014).

Columns and labels:
[1] = target: T1, purified wild type MGL (wt-MGLL 6H-11-313) (Homo sapiens, UniProt Q99685); assay: MGL enzyme activity assay (4MU-B cleavage), wild type MGL; format: biochemical; settings: wild type MGL 5 nM, 4MU-B 10 μM, 37° C.; read-out: MGL wild type inh IC50
T1 construct: purified wild type MGL (wt-MGLL 6H-11-313)
T1 sequence (Q99685 1-303): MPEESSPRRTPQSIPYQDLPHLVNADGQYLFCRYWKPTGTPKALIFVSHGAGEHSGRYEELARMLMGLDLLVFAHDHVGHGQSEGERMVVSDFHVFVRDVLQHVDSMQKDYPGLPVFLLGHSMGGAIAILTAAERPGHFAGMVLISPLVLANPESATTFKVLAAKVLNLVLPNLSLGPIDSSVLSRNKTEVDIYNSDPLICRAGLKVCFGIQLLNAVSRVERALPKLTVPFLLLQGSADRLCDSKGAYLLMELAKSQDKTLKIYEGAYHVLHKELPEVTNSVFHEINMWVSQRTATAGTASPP
How it was run: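 Enzyme in 20 mM PIPES pH 7.0, 150 mM NaCl, 0.001% Tween 20 with 4MU-B at 10 μM final and MGL at 5 nM final; compounds 17 to 0.0003 μM final, enzyme added last. Fluorescence (ex 335/em 440 nm) followed at 37° C for 5 min; IC50 from fit of fractional activity versus inhibitor concentration.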

[2] = test system: MGL (rat brain homogenate); assay: 2-AG accumulation assay in rat brain homogenate; format: biochemical; settings: compound 1 μM, percent of vehicle 2-AG accumulation
How it was run: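 Rat brain homogenate was incubated with compound for 15 min at 37° C., after which CaCl2 was added to a final concentration of 10 mM and incubation continued for 15 min at 37° C. in 5 mL total. Reactions were stopped with 6 mL of 2:1 chloroform/methanol, and 2-AG accumulated in the organic phase was quantified by HPLC/MS.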

SMILES | IC50 [1] [nM] | Rat Brain 2AG % VehCntrl (%) @1 μM [2] [%]
Cn1cc(-c2ccc(F)cc2)c2ccc(C(=O)N3CC(N[C@H]4CCN(C(=O)c5cscn5)C4)C3)cc21 [Cpd 193, (3S)-N-(1-{[3-(4-Fluorophenyl)-1-methyl-1H-indol-6-yl]carbonyl}azetidin-3-yl)-1-(1,3-thiazol-4-ylcarbonyl)pyrrolidin-3-amine] | 19 | 219
CC(C)=Cc1c(C(=O)N2CC(N[C@H]3CCN(C(=O)c4ccccc4)C3)C2)sc2cc(C(F)(F)F)ccc12 [Cpd 76, (3S)-N-(1-{[3-(2-Methylprop-1-en-1-yl)-6-(trifluoromethyl)-1-benzothiophen-2-yl]carbonyl}azetidin-3-yl)-1-(phenylcarbonyl)pyrrolidin-3-amine] | 61.8 | 522
O=C(c1ccc2c(ccn2-c2ccc(C(F)(F)F)cc2)c1)N1CC(N[C@H]2CCN(C(=O)c3cscn3)C2)C1 [Cpd 158, (3S)-1-(1,3-Thiazol-4-ylcarbonyl)-N-[1-({1-[4-(trifluoromethyl)phenyl]-1H-indol-5-yl}carbonyl)azetidin-3-yl]pyrrolidin-3-amine] | 16 | 415
O=C(c1cc2ccc(C(F)(F)F)cc2s1)N1CC(N[C@H]2CCN(C(=O)c3nccs3)C2)C1 [Cpd 138, (3S)-1-(1,3-Thiazol-2-ylcarbonyl)-N-(1-{[6-(trifluoromethyl)-1-benzothiophen-2-yl]carbonyl}azetidin-3-yl)pyrrolidin-3-amine] | 16 | 340
O=C(c1ccc2c(-c3ccccc3)c[nH]c2c1)N1CC(N[C@H]2CCN(C(=O)c3cscn3)C2)C1 [Cpd 188, (3S)-N-{1-[(3-Phenyl-1H-indol-6-yl)carbonyl]azetidin-3-yl}-1-(1,3-thiazol-4-ylcarbonyl)pyrrolidin-3-amine] | 74.9 | 140
O=C(c1ccc2c(-c3ccc(F)cc3)c[nH]c2c1)N1CC(N[C@H]2CCN(C(=O)c3nccs3)C2)C1 [Cpd 189, (3S)-N-(1-{[3-(4-Fluorophenyl)-1H-indol-6-yl]carbonyl}azetidin-3-yl)-1-(1,3-thiazol-2-ylcarbonyl)pyrrolidin-3-amine] | 12.5 | 277
Cn1cc(-c2ccc(C(F)(F)F)cc2)c2ccc(C(=O)N3CC(N[C@H]4CCN(C(=O)c5nccs5)C4)C3)cc21 [Cpd 163, (3S)-N-[1-({1-Methyl-3-[4-(trifluoromethyl)phenyl]-1H-indol-6-yl}carbonyl)azetidin-3-yl]-1-(1,3-thiazol-2-ylcarbonyl)pyrrolidin-3-amine] | 10.7 | 274
Cc1c(C(=O)N2CC(N[C@H]3CCN(C(=O)c4ccccc4)C3)C2)sc2ccc(-c3ccc(F)cc3)cc12 [Cpd 94, (3S)-N-(1-{[5-(4-Fluorophenyl)-3-methyl-1-benzothiophen-2-yl]carbonyl}azetidin-3-yl)-1-(phenylcarbonyl)pyrrolidin-3-amine] | < 5 | 445
O=C(c1ccc2c(-c3ccc(C(F)(F)F)cc3)c[nH]c2c1)N1CC(N[C@H]2CCN(C(=O)c3ccccc3)C2)C1 [Cpd 101, (3S)-1-(Phenylcarbonyl)-N-[1-({3-[4-(trifluoromethyl)phenyl]-1H-indol-6-yl}carbonyl)azetidin-3-yl]pyrrolidin-3-amine] | 44 | 141
O=C(c1ccccc1)N1CC[C@H](NC2CN(C(=O)c3sc4ccc(-c5ccc(C(F)(F)F)cc5)cc4c3F)C2)C1 [Cpd 176, (3S)-N-[1-({3-Fluoro-5-[4-(trifluoromethyl)phenyl]-1-benzothiophen-2-yl}carbonyl)azetidin-3-yl]-1-(phenylcarbonyl)pyrrolidin-3-amine] | 6 | 832
O=C(c1cscn1)N1CC[C@H](NC2CN(C(=O)c3cc4ccc(-c5ccccc5)cc4s3)C2)C1 [Cpd 124, (3S)-N-{1-[(6-Phenyl-1-benzothiophen-2-yl)carbonyl]azetidin-3-yl}-1-(1,3-thiazol-4-ylcarbonyl)pyrrolidin-3-amine] | 6 | 227
O=C(c1nccs1)N1CC[C@H](NC2CN(C(=O)c3sc4cc(-c5cccc(C(F)(F)F)c5)ccc4c3Cl)C2)C1 [Cpd 148, (3S)-N-[1-({3-Chloro-6-[3-(trifluoromethyl)phenyl]-1-benzothiophen-2-yl}carbonyl)azetidin-3-yl]-1-(1,3-thiazol-2-ylcarbonyl)pyrrolidin-3-amine] | < 5 | 942

Further lines, with some results ahead:

IC50 [1] [nM] | SMILES | Rat Brain 2AG % VehCntrl (%) @1 μM [2] [%]
< 5 | O=C(c1nccs1)N1CC[C@H](NC2CN(C(=O)c3sc4ccc(-c5ccccc5)cc4c3F)C2)C1 [Cpd 171, (3S)-N-{1-[(3-Fluoro-5-phenyl-1-benzothiophen-2-yl)carbonyl]azetidin-3-yl}-1-(1,3-thiazol-2-ylcarbonyl)pyrrolidin-3-amine] | 614
< 5 | O=C(c1cscn1)N1CC[C@H](NC2CN(C(=O)c3sc4cc(-c5ccc(C(F)(F)F)cc5)ccc4c3F)C2)C1 [Cpd 178, (3S)-N-[1-({3-Fluoro-6-[4-(trifluoromethyl)phenyl]-1-benzothiophen-2-yl}carbonyl)azetidin-3-yl]-1-(1,3-thiazol-4-ylcarbonyl)pyrrolidin-3-amine] | 297
< 5 | O=C(c1nccs1)N1CC[C@H](NC2CN(C(=O)c3sc4cc(-c5ccc(C(F)(F)F)cc5)ccc4c3Cl)C2)C1 [Cpd 150, (3S)-N-[1-({3-Chloro-6-[4-(trifluoromethyl)phenyl]-1-benzothiophen-2-yl}carbonyl)azetidin-3-yl]-1-(1,3-thiazol-2-ylcarbonyl)pyrrolidin-3-amine] | 759
< 5 | Cc1c(C(=O)N2CC(N[C@H]3CCN(C(=O)c4ccccc4)C3)C2)sc2ccc(-c3cccc(F)c3)cc12 [Cpd 93, (3S)-N-(1-{[5-(3-Fluorophenyl)-3-methyl-1-benzothiophen-2-yl]carbonyl}azetidin-3-yl)-1-(phenylcarbonyl)pyrrolidin-3-amine] | 963
< 5 | O=C(c1nccs1)N1CC[C@H](NC2CN(C(=O)c3sc4cc(-c5ccccc5)ccc4c3Cl)C2)C1 [Cpd 146, (3S)-N-{1-[(3-Chloro-6-phenyl-1-benzothiophen-2-yl)carbonyl]azetidin-3-yl}-1-(1,3-thiazol-2-ylcarbonyl)pyrrolidin-3-amine] | 680
< 5 | Cc1c(C(=O)N2CC(N[C@H]3CCN(C(=O)c4nccs4)C3)C2)sc2ccc(-c3ccccc3)cc12 [Cpd 92, (3S)-N-{1-[(3-Methyl-5-phenyl-1-benzothiophen-2-yl)carbonyl]azetidin-3-yl}-1-(1,3-thiazol-2-ylcarbonyl)pyrrolidin-3-amine] | 624
< 5 | O=C(c1cscn1)N1CC[C@H](NC2CN(C(=O)c3cc4cc(-c5cccc(C(F)(F)F)c5)ccc4s3)C2)C1 [Cpd 130, (3S)-1-(1,3-Thiazol-4-ylcarbonyl)-N-[1-({5-[3-(trifluoromethyl)phenyl]-1-benzothiophen-2-yl}carbonyl)azetidin-3-yl]pyrrolidin-3-amine] | 747
